Experimental data as given in patent publication US11008286B2, “Amino mercaptan compound and preparation method therefor and use thereof in protection against radiation” (Institute of Radiation Medicine Chinese Academy of Medical …, priority 2016, dated 2021).
“And” between values parts separate entries of the source, which are not always exact repeats. Equal entries are not always repeated. Structures can show the parent of a compound that is named as a salt. Where two headings read alike, the source gives them in different places.

Key:
[1] = tested on: C57 male mice; assay: Example E2: HE staining of small intestine on the 5th day after local abdominal irradiation; format: in vivo
Method: In amifostine group, intraperitoneal injection was performed 30 min before the local abdominal irradiation at 16Gy, wherein amifostine was dissolved in normal saline, 365 mpk.
In Example 4 group, intraperitoneal injection was performed 30 min before the local abdominal irradiation at 16Gy, wherein Example 4 was dissolved in normal saline, 517 mpk.
The mice were sacrificed on the 5th day after the irradiation, and the small intestine was taken and sectioned for HE staining.

[2] = cited from earlier work
[3] = tested on: C57 male mice;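 on survival rate compared with amifostine: mice aged 8-10 weeks, weighing 20-22 g, with deaths logged and survival rate computed on day 30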;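 on survival rates compared with amifostine: mice aged 8-10 weeks, weighing 20-22 g, with deaths logged and survival rate computed on day 30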
Method: Laboratory animals: C57 male mice, 8-10 weeks old, 20-22 g, were divided into 4 groups, 5 or 10 or 15 or 20 or 25 mice in each group.
Observation index: The death and weight of the mice were recorded, and the survival rate was calculated on the 30th day.

[4] = tested on: C57 male mice; assay: Example F: radiation pneumonia, HE staining of right lung on the 60th day after 17Gy X rays; format: in vivo
Method: Administration and grouping: Mice were intraperitoneally injected with normal saline, Example 4 (400 mpk), and amifostine (200 mpk) respectively 30 min before irradiation, and the right lungs were irradiated at 17Gy by X rays. The right lungs were taken on the 60th day for HE staining (n=3):
Two months after irradiation of the unilateral lung, the most important lung manifestation was radiation pneumonia. […] The alveolar structure of mice in the 17Gy group was changed, which was manifested as a large area of inflammatory infiltration of the lung (the blue dots were inflammatory cells), and the alveoli were filled with inflammatory cells.

[5] = tested on: C57 male mice; format: in vivo; details: for Survival number/Test number: no irradiation, 30-day;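 on survival rate compared with amifostine: mice aged 8-10 weeks, weighing 20-22 g, with deaths logged and survival rate computed on day 30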;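 on survival rates compared with amifostine: mice aged 8-10 weeks, weighing 20-22 g, with deaths logged and survival rate computed on day 30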
Method: Administration and grouping: Each group was intraperitoneally injected with one corresponding dose of amifostine. • Each group was intraperitoneally injected with one corresponding dose of Example 17 (IP).
The 30-day survival rate of mice in each group was recorded.

[6] = tested on: C57 male mice; assay: Example D: protective effect on the hematopoietic system after 4Gy irradiation; format: in vivo; details: 800 mpk IP 30 min before 4Gy
Excerpt: The mice were sacrificed on the 15th day after the irradiation, followed by blood collection. Femoral bone marrow cells, spleen and thymus were weighed, and cells were extracted for detecting the peripheral white blood cell (WBC) count, peripheral red blood cell (RBC) count, peripheral hemoglobin (HGB) concentration, peripheral platelet (PLT) count, peripheral blood lymphocyte ratio (LY %), and peripheral blood neutrophil ratio (NE %).
In addition, the number of leukocytes in bone marrow, ratio of hematopoietic stem cell (LSK) in bone marrow cells, ratio of hematopoietic progenitor cells (HPC) in bone marrow cells, ratio of CD34−LSK in bone marrow cells, and ratio of CD34+LSK in bone marrow cells were detected.
The effects of irradiation on LSK intracellular reactive oxygen species (ROS) level and HPC intracellular ROS level were also detected.

[7] = tested on: C57 male mice; assay: Example G: effect of stereoisomerism on survival rate of mice under 7.5Gy irradiation; format: in vivo; details: 200 mg/kg IP 30 min before irradiation
Excerpt: Laboratory animals: C57 male mice, 19-21 g, purchased from Beijing HFK Bioscience Co. Ltd., license number SCXK (Beijing), 9 mice in each group.

[8] = 6.8Gy, 200 mpk IP 30 min before irradiation, day 30
[9] = 15th day, vs irradiation control

NCCCNCCSP(=O)(O)O [Amifostine, amifostine, reference compound]
intestinal villi structure (HE staining) ([1]; 365 mpk IP 30 min before local abdominal irradiation at 16Gy): slight changes compared with the irradiation group
half-life [2]: 7 min
Survival number/Test number [3, 8]: 5/5
Survival rate [3, 8]: 100%
Survival number/Test number ([3]; 7.2Gy, 200 mpk IP, day 30): 9/10 and 12/15 and 4/5 and 7/10 and 20/25
Survival rate ([3]; 7.2Gy, 200 mpk IP, day 30): 90% and 80% and 70%
Survival number/Test number ([3]; 7.5Gy, 200 mpk IP, day 30): 5/5 and 4/5 and 1/10
Survival number/Test number ([3]; 7.5Gy, 365 mpk IP): 10/10
Survival rate ([3]; 7.5Gy, 365 mpk IP): 100%
Survival number/Test number ([3]; 10Gy, 517 mpk IP): 15/20
Survival rate ([3]; 10Gy, 517 mpk IP): 75%
Survival number/Test number ([3]; 12.5Gy, 517 mpk IP): 5/10
Survival rate ([3]; 12.5Gy, 517 mpk IP): 50%
inflammatory cell infiltration of lung / incidence of radiation pneumonia ([4]; 200 mpk IP 30 min before 17Gy X rays to right lung): partially relieve inflammatory cell infiltration and reduce the incidence of radiation pneumonia
Survival number/Test number ([5]; 400 mpk IP): 5/5
Survival number/Test number ([5]; 600 mpk IP): 5/5
Survival number/Test number ([5]; 800 mpk IP): 3/5
Survival number/Test number ([5]; 1600 mpk IP): 0/5

CNC(=O)[C@H](CS)NC(=O)[C@H](CS)NC(=O)[C@H](CS)NC [Example 4, (R)-3-mercapto-N—((R)-3-mercapto-1-(((R)-3-mercapto-1-(methylamino)-1-oxopropan-2-yl)amino)-1-oxopropan-2-yl)-2-(methylamino) propanamide trifluoroacetate]
number of leukocytes (WBC) in bone marrow ([6]; 15th day): increased by administration of Example 4 with significant difference
ratio of hematopoietic progenitor cells (HPC) in bone marrow cells (HPC %) ([6]; 15th day): increased by administration of Example 4 with significant difference
ratio of hematopoietic stem cell (LSK) in bone marrow cells (LSK %) ([6]; 15th day): increased by administration of Example 4 with significant difference
ratio of CD34+LSK in bone marrow cells ([6]; 15th day, irradiation decreased CD34+LSK %): alleviated this abnormal differentiation with significant difference
ratio of CD34−LSK in bone marrow cells ([6]; 15th day, irradiation increased CD34−LSK %): alleviated this abnormal differentiation with significant difference
peripheral blood neutrophil ratio (NE %) ([6]; 15th day, irradiation increased NE %): alleviated this abnormal differentiation with significant difference
peripheral blood lymphocyte ratio (LY %) ([6]; 15th day, irradiation reduced LY %): alleviated this abnormal differentiation with significant difference
peripheral red blood cell (RBC) count [6, 9]: increased by administration of Example 4 with significant difference
peripheral white blood cell (WBC) count [6, 9]: increased by administration of Example 4 with significant difference
HPC intracellular ROS level ([6]; bone marrow): reduced the ROS levels with significant difference
LSK intracellular reactive oxygen species (ROS) level ([6]; bone marrow): reduced the ROS levels with significant difference
intestinal villi structure (HE staining) ([1]; 517 mpk IP 30 min before local abdominal irradiation at 16Gy): slight changes compared with the irradiation group
Survival number/Test number [7]: 5/9
Survival rate [7]: approximately 56%
deaths ([7]; 9 mice per group): (4 deaths)
Survival number/Test number ([3]; 7.2Gy, 200 mpk IP, day 30): 20/25
Survival rate ([3]; 7.2Gy, 200 mpk IP, day 30): 80%
Survival number/Test number ([3]; 7.5Gy, 517 mpk IP): 9/10
Survival rate ([3]; 7.5Gy, 517 mpk IP): 90%
Survival number/Test number ([3]; 7.5Gy, 800 mpk IP): 7/10
Survival rate ([3]; 7.5Gy, 800 mpk IP): 70%
Survival number/Test number ([3]; 10Gy, 365 mpk IP): 15/20
Survival rate ([3]; 10Gy, 365 mpk IP): 75%
Survival number/Test number ([3]; 12.5Gy, 365 mpk IP): 4/10
Survival rate ([3]; 12.5Gy, 365 mpk IP): 40%
survival rates compared with amifostine ([3]; absorbed dose 6.8Gy and 7.2Gy): survival rates comparable to those using amifostine
survival rate compared with amifostine ([3]; higher absorbed dose, as high as 12.5Gy): a survival rate equivalent to those using amifostine
inflammatory cell infiltration of lung / incidence of radiation pneumonia ([4]; 400 mpk IP 30 min before 17Gy X rays to right lung): partially relieve inflammatory cell infiltration and reduce the incidence of radiation pneumonia
Survival number/Test number ([5]; 400 mpk IP): 10/10
Survival number/Test number ([5]; 600 mpk IP): 5/5
Survival number/Test number ([5]; 800 mpk IP): 10/10
Survival number/Test number ([5]; 900 mpk IP): 10/10
Survival number/Test number ([5]; 1000 mpk IP): 6/6 and 10/10
Survival number/Test number ([5]; 1100 mpk IP): 8/10
Survival number/Test number ([5]; 1200 mpk IP): 6/10
Survival number/Test number ([5]; 1600 mpk IP): 3/10
Survival rate ([5]; male, C57, mouse, in vivo, 1000 mg/kg, 30 day): 100%
safety compared with amifostine ([5]; mouse, in vivo): as safe as or even better than amifostine
